# Patent US20240400572A1, “COMPOUNDS AND METHODS FOR TREATING CANCERS THAT ARE MGMT DEFICIENT REGARDLESS OF MMR STATUS” (Yale University, priority 2021, published 2024)
# How the values were obtained:
# [1] = tested on: BJ fibroblast cells; assay: Short-term cell viability in normal fibroblasts; type: cell-based, human; settings: KL-50 compared with TMZ
# Description: Cell Culture. LN229 MGMT− and MGMT+ cell lines were a gift from B. Kaina (Johannes Gutenberg University Mainz, Mainz, Germany) and grown in DMEM with 10% FBS (Gibco). DLD1 BRCA2+/− and BRCA2−/− cell lines (Horizon Discovery, Cambridge, UK) were grown in RPMI 1640 with 10% FBS. HCT116 MLH1−/− and HCT116+Chr3 cell lines were a gift from T. Kunkel (National Institute of Environmental Health Sciences, Durham, NC) and grown in DMEM with 10% FBS, with […] G418 (Sigma) for HCT116+Chr3 cells. PD20 cell lines complemented with empty vector (+EV), wildtype FANCD2 (+FD2), or K561R ubiquitination-mutant FANCD2 (+KR) were a gift from G. Kupfer and P. Glazer (Yale University, New Haven, CT) and growth in DMEM with 10% FBS. PEO1 and PEO4 cell lines were a gift from T. Taniguchi (Fred Hutchinson Cancer Research Center, Seattle, WA) and were grown in DMEM with 10% FBS. BJ fibroblasts (normal human fibroblast cells) were purchased from ATCC (CRL-2522) and grown in DMEM with 10% FBS. […] All human cell lines were validated by short tandem repeat profiling (excluding BJ fibroblasts which were used within 6 passages of receiving from ATCC) and confirmed negative for mycoplasma by quantitative RT-PCR.
# Short-term Cell Viability Assay. […] Cells were imaged on a Cytation 3 imaging reader (BioTek) and quantified using CellProfiler software.
# [2] = tested on: linearized pUC19 plasmid DNA; assay: In vitro DNA cross-linking assay; type: biochemical; settings: 100 μM, 6-36 hours
# Description: Plasmid Linearization Assay. To set up the linearization reactions, 20 units of EcoRI-HF (New England Biolabs) was mixed with 20 μg 2686 bp pUC19 vector DNA in CutSmart buffer (New England Biolabs), pH 7.9, in a total volume of 1000 μL for 30 min at 37° C. The CutSmart buffer contains 50 mM potassium acetate, 20 mM Tris acetate, 10 mM magnesium acetate, and 100 μg/mL BSA. The reacted DNA was then purified using PCR cleanup kit and quantified using the NanoDrop One (Thermo Fisher). The DNA was then stored at −20° C. before use in in vitro DNA cross-linking assays or melting temperature analysis.
# In Vitro DNA Cross-linking Assays. Linearized pUC19 DNA, prepared as described above, was used for in vitro DNA cross-linking assays. For each condition, 200 ng of linearized pUC19 DNA (15.4 μM base pairs) was incubated with the indicated concentration of drug in 20 μL. Drug stock concentrations were made in DMSO such that each reaction contained a fixed 5% DMSO concentration. Reactions were conducted in 100 mM Tris buffer (pH 7.4). Cisplatin (Sigma) and DMSO vehicle were used as positive and negative controls, respectively. Reactions were conducted between 3-96 h at 37° C. The DNA was stored at −80° C. until electrophoretic analysis. For gel electrophoresis, DNA concentration was preadjusted to 10 ng/μL. […]
# [3] = tested on: PEO4 (BRCA2+) and PEO1 (BRCA2−/−) cells; assay: Short-term cell viability assay in PEO1/4 model; type: cell-based, human
# Description: FIGS. Z4A-Z4I. KL-50 (4a) activates DNA damage response pathways and cycle arrest in MGMT− cells, independent of MMR, and induces sensitivity in cells deficient in ICL or HR repair. (FIGS. Z4A, Z4B, and Z4C) Phospho-SER139-H2AX (γH2AX) (A), 53BP1 (FIG. Z4B), and phospo-SER33-RPA2 (pRPA) (FIG. Z4C) foci formation quantified by % cells with 10 foci in LN229 MGMT+/−, MMR+/− cells treated with 0.1% DMSO control, 20 μM KL-50 (4a), or 20 μM TMZ (1a) for 48 h. Columns, mean; error bars, SD; n≥5 technical replicates. Additional time course data is presented in FIG. ZS6B to D. (FIG. Z4D) Representative foci images of data in (FIG. Z4A) to (FIG. Z4C). (FIG. Z4E) Percentage of cells in G1, S, and G2 cell cycle phases after treatment as in (A) to (C), measured using integrated nuclear (Hoechst) staining intensity. Columns, mean; error bars, SD; n=3 independent analyses. (FIG. Z4F) Change in percent cells with 1 micronuclei from baseline (DMSO control) after treatment as in (FIG. Z4A) to (FIG. Z4C). Columns, mean; error bars, SD; […] technical replicates; **** p<0.0001; ns, not significant. Additional validation is presented in FIG. ZS9, A and B. (FIG. Z4G) Short-term viability assay curves for KL-50 (4a) in PD20 cells, deficient in FANCD2 (FANCD2−/−) or complemented with FANCD2 (+FANCD2). (FIG. Z4H) Short-term viability assay curves for KL-50 (4a) in PEO4 (BRCA2+) and PEO1 (BRCA2−/−) cells pre-treated with 0.01% DMSO control or 10 μM O^6BG (+O^6BG) for 1 h prior to KL-50 (4a) addition. (FIG. Z4I) Short-term viability assay curves for KL-50 (4a) in DLD1 BRCA2+/− and BRCA2−/− cells pre-treated with 0.01% DMSO control or 10 μM O^6BG (+O^6BG) for 1 h prior to KL-50 (4a) addition. For (FIG. Z4G), (FIG. Z4H), and (FIG. Z4I), points, mean; error bars, SD; n=3 technical replicates.
# Short-term Cell Viability Assay. Cells were seeded in 96-well plates at 1000 or 2000 cells/well and allowed to adhere at 23° C. for 60 min and then incubated overnight at 37° C. Cells were treated with indicated concentrations of compounds in triplicate for 4-6 days prior to fixation with 3.7% paraformaldehyde and nuclear staining with 1 μg/mL Hoechst 33342 dye. Cells were imaged on a Cytation 3 imaging reader (BioTek) and quantified using CellProfiler software.
compound,measurement,setting,value
"NC(=O)c1ncn2c(=O)n(CCF)nnc12 [KL-50, 3-(2-fluoroethyl)-4-oxo-3H,4H-imidazo[4,3-d][1,2,3,5]tetrazine-8-carboxamide]",cytotoxicity in normal human fibroblast cells (in words),[1],no increase in toxicity
same,ICLs in plasmid DNA (in words),[2],"possessed ICLs, with delayed rates of formation relative to 12b"
same,therapeutic index (TI),"[3]; PEO1/4 model, ratio of IC50 values",62 fold
same,sensitivity of BRCA2-deficient cells (in words),"[3]; PEO1 versus PEO4, ± 10 μM O^6BG",BRCA2 loss enhanced the toxicity
